Values after ≈ are worked out from the molar mass of the structure shown.
Tests used:
Type in all cases: cell-based
C8166 cells = assay: Cytotoxicity on C8166 cells (MTT colorimetric assay); settings: 72 h
Protocol: (§1) C8166 was one of the host cells for HIV-1. 100 μl of 4×10^5/ml cells were seeded on microtiter plate, 100 μl of various concentrations of concentricolide were added and incubated at 37° C. in a humidified atmosphere of 5% CO2 for 72 h. The cellular toxicity was assessed by MTT calorimetric assay. The plates were read on Bio-Tek ELx 800 ELISA reader at 595/630 nm (OD595/630 nm). 50% cytotoxic concentration (CC50) was calculated as follows: Cell viability %=(ODexp−ODblank)/(ODcontrol−ODblank)×100.

HIV-1IIIB = assay: Cytopathic effect (CPE) inhibition assay on HIV-1 infected C8166 cells
Protocol: To 100 μl of a culture medium containing corresponding concentration of concentricolide A from example 1 were added C8166 cells (4×10^5/ml) and HIV-1IIIB at a multiplicity of infection (M.O.I) of 0.06. The final volume was 200 μl. AZT was used as positive drug control. The plates were incubated in a humidified incubator at 37° C. and 5% CO2. After 3 days of culture, the cytopathic effect was measured by counting the number of syncytia in each well under an inverted microscope. EC50 (50% Effective Concentration) was the compound concentration inhibiting 50% of syncytia formation. The cytopathic effect (CPE) inhibition %=(1-number of syncytiaexp/number of syncytiacontrol)×100.

[1] = tested on: binding and fusion between HIV-1 and cells; assay: microbe, parasite or virus in culture; settings: C8166 + HIV-1 chronically infected H9 cells, 24 h, syncytia formation
Description: When HIV infected cells were co-cultured with normal T lymphocyte cells, the exterior envelope glycoprotein gp120 expressed on infected cells was bound to the cellular CD4 receptor of the uninfected CD4^+ cells, following fusion of cells and formation of syncytia. Compounds target to this site would inhibit the syncytia formation. Thus, this method could be used to detect whether the compounds have effect on binding and fusion between virus and host cell. Concentricolide A in example 1 was diluted by five fold on 96-well microtiter plate, 3 repeated wells in each gradient, 100 μl per well. Negative control well free of compounds and T-20 positive control well were set up. Then, 50 μl of C8166 cells at logarithmic growth period (6×10^5/ml) and 50 μl of HIV-1 chronically infected H9 cells (2×10^5/ml) were added in each well. The plate was cultured in a humidified incubator at 37° C. and 5% CO2 for 24 h, and the syncytial formation was observed under microscope to deduce whether Concentricolide A blocks the fusion process of virus and cell .

[2] = Cytotoxicity on C8166 cells (MTT colorimetric assay); settings: human, read-out: CC50 (50% cytotoxic concentration)
Protocol: as §1

Molecule: Cc1cn([C@H]2C[C@H](N=[N+]=[N-])[C@@H](CO)O2)c(=O)[nH]c1=O [AZT, 3P-azido-3P-deoxythymidine, reference compound]
- CC50 (50% cytotoxic concentration) (C8166 cells): 258.88 µg/mL (≈ 969 µM)
- EC50, inhibition of cytopathic effect (CPE) of HIV-1 (HIV-1IIIB; C8166 cells, HIV-1IIIB M.O.I. 0.06, 3 days, syncytia count): 0.092 µg/mL

Molecule: enfuvirtide
- EC50, blockage of fusion of HIV-1 infected cells ([1]; positive control): 0.00602 µg/mL

Molecule: CC[C@@H]1OC(=O)c2c1ccc1ccoc21 [concentricolide A]
- CC50 at 72 h [2]: 76.7 µg/mL (≈ 379 µM)
- EC50 ([1]; Human immunodeficiency virus 1, read-out: EC50, blockage of binding and fusion between HIV-1 and cells): 0.83 µg/mL
- EC50 (HIV-1IIIB; Human immunodeficiency virus 1, 72 h, C8166 cells, HIV-1IIIB M.O.I. 0.06, 3 days, syncytia count): 0.31 µg/mL (≈ 1.53 µM)
- selected index (S.I.) (HIV-1IIIB; against HIV-1 in vitro): 222
